Measured values taken from patent US20250289829A1, “DEUBIQUITINASE INHIBITOR AND USE THEREOF” (CHASER THERAPEUTICS, INC., priority 2022, published 2025).

Tests used:
[1] = biological target: T1, USP28 (Homo sapiens, UniProt Q96RU2); assay: USP28 activity by the ubiquitin-rhodamine 110 (Ub-Rh110) method; format: biochemical; conditions: purified USP28 4 nM, Ub-Rh110 125 nM, 30 min preincubation; read-out: Inhibitory activity (IC50) USP28
T1 construct: purchased R&D Systems China Co., Ltd. (R&D Systems)
T1 sequence (Q96RU2 1-1077): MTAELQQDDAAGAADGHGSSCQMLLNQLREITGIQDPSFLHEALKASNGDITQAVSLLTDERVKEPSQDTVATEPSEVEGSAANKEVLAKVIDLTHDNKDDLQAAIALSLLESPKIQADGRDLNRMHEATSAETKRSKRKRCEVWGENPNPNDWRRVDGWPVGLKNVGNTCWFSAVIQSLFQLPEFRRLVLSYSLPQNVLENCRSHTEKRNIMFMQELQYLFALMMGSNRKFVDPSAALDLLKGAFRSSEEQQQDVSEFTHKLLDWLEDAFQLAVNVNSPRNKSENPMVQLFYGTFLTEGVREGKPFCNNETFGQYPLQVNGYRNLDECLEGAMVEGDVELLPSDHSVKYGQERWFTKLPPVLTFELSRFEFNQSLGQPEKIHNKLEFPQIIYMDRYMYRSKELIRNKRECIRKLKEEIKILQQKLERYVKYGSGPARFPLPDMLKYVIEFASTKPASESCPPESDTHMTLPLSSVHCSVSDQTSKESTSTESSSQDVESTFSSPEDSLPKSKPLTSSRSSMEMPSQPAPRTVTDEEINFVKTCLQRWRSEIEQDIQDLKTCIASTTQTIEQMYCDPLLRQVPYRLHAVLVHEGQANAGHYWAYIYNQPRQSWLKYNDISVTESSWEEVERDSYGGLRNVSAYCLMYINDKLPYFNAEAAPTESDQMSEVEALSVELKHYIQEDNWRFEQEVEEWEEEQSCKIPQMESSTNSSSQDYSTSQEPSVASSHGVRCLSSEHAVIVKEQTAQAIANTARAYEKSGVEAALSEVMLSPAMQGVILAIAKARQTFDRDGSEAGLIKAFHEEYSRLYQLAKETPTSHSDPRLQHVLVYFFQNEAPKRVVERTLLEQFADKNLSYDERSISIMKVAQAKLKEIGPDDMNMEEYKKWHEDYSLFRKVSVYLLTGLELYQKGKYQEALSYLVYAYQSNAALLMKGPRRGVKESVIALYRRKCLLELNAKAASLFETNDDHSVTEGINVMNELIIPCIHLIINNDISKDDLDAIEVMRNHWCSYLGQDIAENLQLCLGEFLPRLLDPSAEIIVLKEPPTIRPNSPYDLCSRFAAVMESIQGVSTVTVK
Protocol: USP28 activity was determined by the ubiquitin-rhodamine 110 (Ub-Rh110) method.
Purified USP28 and a substrate Ub-Rh110 used for determining deubiquitinase activity were purchased from R&D Systems China Co., Ltd. (R&D Systems). First, test compounds were each dissolved in DMSO to prepare a 10 mM stock solution, and then the stock solution was diluted to the desired concentration (with a DMSO content of 0.5%) with a buffer solution [containing 20 mM Tris-HCl (pH 8.0), 2 mM CaCl2), 3 mM BME, 0.01% Prionex, and 0.01% Triton X-100]. The prepared test compound solutions at different concentrations were mixed uniformly with USP28 (final concentration: 4 nM) in a 96-well plate, and the mixture was incubated at r. t. for 30 min before the addition of Ub-Rh110 to 125 nM. The final volume of the whole reaction system was 20 μL. The released fluorescence (excitation wavelength: 485 nm, emission wavelength: 535 nm) was detected immediately on a microplate reader after the addition of the substrate. A blank control group (DMSO instead of test compound) and a substrate group (no USP28 added) were set simultaneously. The inhibitory rates of the test compounds for USP28 were calculated according to the following formula:
Inhibition %=(1−[(fluorescence valuetest compound−fluorescence valuesubstrate)/(fluorescence valuecontrol−fluorescence valuesubstrate])×100%
According to the inhibitory rates of the test compounds for USP28 under different concentrations, IC50 values were calculated.
(§1) With reference to Example 2 and Example 3, USP28 and USP25 inhibitor activity tests were performed on representative example compounds of the present disclosure and the following comparative compound structures.

[2] = biological target: T2, USP25 (Homo sapiens, UniProt Q9UHP3); assay: USP25 activity by the Ub-Rh110 method; format: biochemical; conditions: purified USP25 15 nM, Ub-Rh110 125 nM; read-out: Inhibitory activity (IC50) USP25
T2 construct: purchased R&D Systems
T2 sequence (Q9UHP3 1-1055): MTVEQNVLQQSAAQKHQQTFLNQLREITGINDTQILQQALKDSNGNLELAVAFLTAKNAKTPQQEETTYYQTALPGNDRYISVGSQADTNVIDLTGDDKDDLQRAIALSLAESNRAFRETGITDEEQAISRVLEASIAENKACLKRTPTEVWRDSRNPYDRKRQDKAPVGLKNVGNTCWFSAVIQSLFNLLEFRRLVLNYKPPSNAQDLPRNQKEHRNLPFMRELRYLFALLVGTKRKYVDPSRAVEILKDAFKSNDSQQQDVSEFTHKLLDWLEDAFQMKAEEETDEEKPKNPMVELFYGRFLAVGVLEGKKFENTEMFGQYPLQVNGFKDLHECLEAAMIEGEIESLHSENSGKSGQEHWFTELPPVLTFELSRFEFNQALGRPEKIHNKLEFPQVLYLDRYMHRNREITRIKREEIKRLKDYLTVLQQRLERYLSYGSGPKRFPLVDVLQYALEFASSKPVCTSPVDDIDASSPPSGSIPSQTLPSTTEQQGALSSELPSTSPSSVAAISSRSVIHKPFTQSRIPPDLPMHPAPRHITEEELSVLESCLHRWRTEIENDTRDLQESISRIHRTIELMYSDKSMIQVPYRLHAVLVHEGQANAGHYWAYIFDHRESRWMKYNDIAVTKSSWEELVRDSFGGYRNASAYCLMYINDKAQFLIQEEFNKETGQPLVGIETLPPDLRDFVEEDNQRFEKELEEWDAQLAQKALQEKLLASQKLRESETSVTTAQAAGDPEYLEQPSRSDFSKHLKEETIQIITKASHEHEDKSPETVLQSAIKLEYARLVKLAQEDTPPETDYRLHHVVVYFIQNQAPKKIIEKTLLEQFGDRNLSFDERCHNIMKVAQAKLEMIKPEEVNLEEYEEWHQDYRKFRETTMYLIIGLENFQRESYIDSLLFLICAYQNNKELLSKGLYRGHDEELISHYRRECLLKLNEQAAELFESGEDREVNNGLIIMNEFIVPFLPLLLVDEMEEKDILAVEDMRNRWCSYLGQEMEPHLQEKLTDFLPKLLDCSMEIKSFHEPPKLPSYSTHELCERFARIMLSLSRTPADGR
Protocol: USP25 activity was determined by the Ub-Rh110 method.
Purified USP25 was purchased from R&D Systems. The experimental procedures were the same as those in Example 2. The final concentration of USP25 was 15 nM, the final concentration of the substrate Ub-Rh110 was 125 nM, and the final volume of the whole reaction system was 20 μL.
as §1

Row | Structure (SMILES) | IC50 [1] | IC50 [2]
1 | CCn1ccc2c(NC)c(C(=O)NCCc3ccc(N4CC5CCC(C4)N5)cc3)cnc21 [Compound I-02, N-4-(3,8-diazabicyclo[3.2.1]octan-3-yl)phenethyl-1-ethyl-4-methylamino-1H-pyrrolo[2,3-b]pyridine-5-carboxamide] | < 50 nM | < 50 nM
2 | CCn1ccc2c(NC)c(C(=O)N[C@@H]3COc4cc(N5CC6CCC(C5)N6)ccc4C3)cnc21 [Compound I-24] | 50 to 500 nM | 500 to 1000 nM
3 | CCCNc1c(C(=O)NCCc2ccc(N3CC4CCC(C3)N4)cc2)cnc2c1ccn2CC [Compound I-04] | 1000 to 10000 nM | > 10000 nM
4 | CNc1c(C(=O)NCCc2ccc(N3CCNCC3)cc2)cnc2c1ccn2CC(F)(F)F [Compound I-16] | < 50 nM | < 50 nM
5 | CCn1ccc2c(NC)c(C(=O)NCCc3ccc(C4CC5CCC(C4)N5)cc3)cnc21 (stereo not shown) [Compound I-17] | < 50 nM | 50 to 500 nM
6 | CCCn1ccc2c(NC)c(C(=O)NCCc3ccc(N4CC5CCC(C4)N5)cc3)cnc21 [Compound I-13] | < 50 nM | < 50 nM
7 | CCn1ccc2c(NC)c(C(=O)N[C@H]3CCc4cc(N5CC6CCC(C5)N6)ccc4C3)cnc21 [Compound I-25] | < 50 nM | 50 to 500 nM
8 | COc1c(C(=O)NCCc2ccc(N3CC4CCC(C3)N4)cc2)cnc2c1ccn2C [Compound I-31] | 1000 to 10000 nM | > 10000 nM
9 | CCn1ccc2c(NC)c(C(=O)NCCc3ccc(N4CCNCC4)cc3)nnc21 [Compound I-28] | < 50 nM | < 50 nM
10 | CCn1ccc2c(NC)c(C(=O)NCCc3ccc(N4CC5CCC(C4)N5)cc3F)cnc21 [Compound I-05] | < 50 nM | 50 to 500 nM
11 | CCNc1c(C(=O)NCCc2ccc(N3CC4CCC(C3)N4)cc2)cnc2c1ccn2CC [Compound I-03] | 500 to 1000 nM | 500 to 1000 nM
12 | CCn1ccc2c(NC)c(C(=O)NCCc3ccc(N4CCNCC4)cc3)cnc21 [Compound I-07] | < 50 nM | < 50 nM
13 | CCn1ccc2c(Cl)c(C(=O)NCCc3ccc(N4CC5CCC(C4)N5)cc3)cnc21 [Compound I-01, N-4-(3,8-diazabicyclo[3.2.1]octan-3-yl)phenethyl-4-chloro-1-ethyl-1H-pyrrolo[2,3-b]pyridine-5-carboxamide] | 1000 to 10000 nM | 1000 to 10000 nM
14 | CCn1ccc2c(NC)c(C(=O)NC[C@@H](C)c3ccc(N4CC5CCC(C4)N5)cc3)cnc21 [Compound I-22] | 50 to 500 nM | 500 to 1000 nM
15 | CCn1ccc2c(NC)c(C(=O)NCCc3ccc(OC)c(OC)c3)cnc21 [Compound I-09] | 50 to 500 nM | 50 to 500 nM
16 | CCn1ccc2c(NC)c(C(=O)NCCc3ccc(N4C5CCC4CNC5)cc3)cnc21 [Compound I-19] | < 50 nM | 50 to 500 nM
17 | CCn1ccc2c(OC)c(C(=O)NCCc3ccc(N4CC5CCC(C4)N5)cc3)cnc21 [Compound I-32] | 50 to 500 nM | 1000 to 10000 nM

Row | Structure (SMILES) | IC50 [1] | IC50 [2]
18 | CNc1c(C(=O)NCCc2ccc(N3CC4CCC(C3)N4)cc2)cnc2c1ccn2C [Compound I-12] | < 50 nM | 50 to 500 nM
19 | CCn1ccc2c(NC)c(C(=O)NCCc3ccc(C4C5CCC4CNC5)cc3)cnc21 (stereo not shown) [Compound I-18] |  | 50 to 500 nM
20 | CCn1ccc2c(NC)c(C(=O)NCC(C)(C)c3ccc(N4CC5CCC(C4)N5)cc3F)cnc21 [Compound I-06] | 50 to 500 nM | 500 to 1000 nM
21 | CCn1ccc2c(NC)c(C(=O)NCCc3ccc(N4CC5CCC(C4)N5)cc3F)nnc21 [Compound I-29] | < 50 nM | 50 to 500 nM
22 | CCn1ccc2c(NC)c(C(=O)NCCc3ccc(N4CC5CCC(C4)N5)cc3)nnc21 [Compound I-27] | < 50 nM | < 50 nM
23 | CCn1ccc2c(NC)c(C(=O)N[C@H]3COc4cc(N5CC6CCC(C5)N6)ccc4C3)cnc21 [Compound I-23] | < 50 nM | < 50 nM
24 | CCCCn1ccc2c(NC)c(C(=O)NCCc3ccc(N4CC5CCC(C4)N5)cc3)cnc21 [Compound I-14] | < 50 nM | < 50 nM
25 | CNc1c(C(=O)NCCc2ccc(N3CC4CCC(C3)N4)cc2)cnc2[nH]ccc12 [Compound I-11] | 50 to 500 nM | 500 to 1000 nM
26 | CCn1cc(Cl)c2c(NC)c(C(=O)NCCc3ccc(N4CC5CCC(C4)N5)cc3)cnc21 [Compound I-30] | < 50 nM | 50 to 500 nM
27 | CCn1ccc2c(OC)c(C(=O)NCCc3ccc(N4CCNCC4)cc3)cnc21 [Compound I-33] | 50 to 500 nM | 1000 to 10000 nM
28 | CCn1ccc2c(NC)c(C(=O)NCCc3ccc(Br)cc3)cnc21 [Compound I-10] |  | > 10000 nM
29 | CCn1ccc2c(NC)c(C(=O)N[C@@H]3CCc4cc(N5CC6CCC(C5)N6)ccc4C3)cnc21 [Compound I-26] | 50 to 500 nM | 500 to 1000 nM
30 | CCn1ccc2c(NC)c(C(=O)NCCc3ccc(C4CCNCC4)cc3)cnc21 [Compound I-20] | < 50 nM | 50 to 500 nM
31 | CCn1ccc2c(NC)c(C(=O)NC[C@H](C)c3ccc(N4CC5CCC(C4)N5)cc3)cnc21 [Compound I-21] | 50 to 500 nM | 500 to 1000 nM
32 | CNc1c(C(=O)NCCc2ccc(N3CC4CCC(C3)N4)cc2)cnc2c1ccn2CC(F)(F)F [Compound I-15] | < 50 nM | < 50 nM
33 | CCn1ccc2c(NC)c(C(=O)NCCc3c[nH]c4ccccc34)cnc21 [Compound I-08] | < 50 nM | 50 to 500 nM
